Laboratory results: patent US7629323B2, “Manipulation of neuronal ion channels” (Northwestern University, priority 2003, dated 2009)

Tests used:
[1] = biological target: T1, homomeric Kv3.4a channels (Rattus norvegicus, UniProt Q63734); test: Whole-cell recording of homomeric Kv3.4a channels expressed in HEK293 cells; format: cell-based; conditions: n=5
T1 construct: expressed in transfected cells; host or cells: HEK293
T1 sequence (Q63734 1-625): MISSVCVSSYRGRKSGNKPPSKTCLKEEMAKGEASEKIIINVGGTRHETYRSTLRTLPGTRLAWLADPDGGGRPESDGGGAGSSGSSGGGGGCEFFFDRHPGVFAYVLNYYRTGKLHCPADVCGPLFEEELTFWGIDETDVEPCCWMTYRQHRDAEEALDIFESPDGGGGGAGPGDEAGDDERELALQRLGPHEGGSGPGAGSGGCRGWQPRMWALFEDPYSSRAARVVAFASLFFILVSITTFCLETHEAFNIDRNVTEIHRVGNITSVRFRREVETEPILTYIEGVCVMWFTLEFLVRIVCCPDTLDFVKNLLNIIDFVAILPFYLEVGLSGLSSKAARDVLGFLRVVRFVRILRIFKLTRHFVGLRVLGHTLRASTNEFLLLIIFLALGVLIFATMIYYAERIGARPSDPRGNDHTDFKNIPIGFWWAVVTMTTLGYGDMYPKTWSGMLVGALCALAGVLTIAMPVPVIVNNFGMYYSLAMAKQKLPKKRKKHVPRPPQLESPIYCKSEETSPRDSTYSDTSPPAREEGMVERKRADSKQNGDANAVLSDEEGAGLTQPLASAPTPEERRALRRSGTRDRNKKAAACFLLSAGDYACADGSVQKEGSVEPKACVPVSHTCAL
From the text: (§1) Electrophysiology. Whole-cell recordings used standard techniques^27,28. The internal solution consisted of (in mM): 30-90 K2SO4, 0-60 N-methyl-D-glucamine, 2 MgCl2, 40 HEPES, 5 EGTA, 12 phosphocreatine, 2 Na2ATP, 0.2 Na3GTP, and 0.1 leupeptin, pH 7.2 with H2SO4 (osmolarity 260-270 mOsm/l). The external solution consisted of (in mM): 140 Na-isethionate, 2 KCl, 4 MgCl2, 10 HEPES, 12 glucose and 0.001 TTX, pH 7.35 with NaOH (osmolarity 295-305 mOsm/l). The internal solution for current clamp recordings consisted of (in mM) 110 potassium methylsulphate, 2 MgCl2, 40 HEPES, 5 EGTA, 12 phosphocreatine, 2 Na2ATP, 0.2 Na3GTP, and 0.1 leupeptin, pH 7.2 with H2SO4 (osmolarity 260-270 mOsm/l). In the case of current clamp recordings, TTX was omitted from external solution. For the recordings in the presence of Ca^+2 ions EGTA was omitted from internal solution and 4 mM of MgCl2 was substituted by 2 mM of CaCl2 and 2 mM of MgCl2. […] Recordings were obtained with Axon Instruments 200 patch-clamp amplifier and controlled and monitored with a PC running pClamp software (version 7.0) (Axon Instruments Inc., Union City, Calif.). […] After seal rupture, series resistance (2-10 MΩ) was compensated (75-90%) and periodically monitored. […]
Single cell RT-PCR (scRT-PCR). […] In the case of co-transfection with Kv3.4a and Kv3.1b cDNA, single cell RT-PCR was used to confirm the presence of both mRNAs in the recorded cell. […]

FS neurons = test: Current clamp recording of spiking in FS neurons; format: cell-based, rat
From the text: (§2) Tissue preparation. […] Hippocampal interneurons and GP were identified as CaMKII negative, GAD67 and parvalbumin positive neurons by single cell RT-PCR detection of corresponding mRNAs following physiology experiments (see below).
Electrophysiology. Whole-cell recordings used standard techniques^27,28. The internal solution consisted of (in mM): 30-90 K2SO4, 0-60 N-methyl-D-glucamine, 2 MgCl2, 40 HEPES, 5 EGTA, 12 phosphocreatine, 2 Na2ATP, 0.2 Na3GTP, and 0.1 leupeptin, pH 7.2 with H2SO4 (osmolarity 260-270 mOsm/l). The external solution consisted of (in mM): 140 Na-isethionate, 2 KCl, 4 MgCl2, 10 HEPES, 12 glucose and 0.001 TTX, pH 7.35 with NaOH (osmolarity 295-305 mOsm/l). The internal solution for current clamp recordings consisted of (in mM) 110 potassium methylsulphate, 2 MgCl2, 40 HEPES, 5 EGTA, 12 phosphocreatine, 2 Na2ATP, 0.2 Na3GTP, and 0.1 leupeptin, pH 7.2 with H2SO4 (osmolarity 260-270 mOsm/l). In the case of current clamp recordings, TTX was omitted from external solution. For the recordings in the presence of Ca^+2 ions EGTA was omitted from internal solution and 4 mM of MgCl2 was substituted by 2 mM of CaCl2 and 2 mM of MgCl2. All drugs were obtained from Sigma (St. Louis, […]) except BDS-I that was obtained from Alomone Labs (Jerusalem, Israel). Solutions were applied by gravity fed sewer pipe system. Recordings were obtained with Axon Instruments 200 patch-clamp amplifier and controlled and monitored with a PC running pClamp software (version 7.0) (Axon Instruments Inc., Union City, Calif.). […] After seal rupture, series resistance (2-10 MΩ) was compensated (75-90%) and periodically monitored. […] Activation data were fit with a Boltzmann equation of the form: 1/(1+exp ((Vh−V)/Vc), V stands for membrane potential. In the case of Kv3.4a current, an estimate of peak current was obtained by single exponential fit of decay phase extrapolated to the start of test pulse. In all other instances the voltage dependence of the currents was obtained from the amplitude of tail currents measured following 200 msec long voltage steps. […]

[2] = test system: Na+ currents in FS neurons; test: Na+ currents in FS neurons; format: cell-based, rat; conditions: n=3
From the text: as §2
as §1, with “solution.” for “solution. For the recordings in the presence of Ca^+2 ions EGTA was omitted from internal solution and 4 mM of MgCl2 was substituted by 2 mM of CaCl2 and 2 mM of MgCl2.”

homomeric Kv3.4 channels = biological target: T2, homomeric Kv3.4 channels (Rattus norvegicus, UniProt Q63734); conditions: low micromolar concentrations; cited from earlier work
T2 sequence (Q63734 1-625): T1 sequence (Q63734 1-625)

BDS-I (AAPCFCSGKPGRGDLWILRGTCPGGYGYTSNCYKWPNICCYPH)
effect on homomeric Kv3.4a channel currents [1]: slowed the rising phase of the currents but led to larger currents later in the step | change in the rate of rise in the spike (FS neurons): no obvious change | increase of duration of spikes in FS neurons (FS neurons; BDS-I 2 μM, extracellular Ca2+ 2 mM, n=4): 53+13% | rate of repetitive spiking evoked by sustained current injection (FS neurons; with and without extracellular Ca2+): slowed | inactivation kinetics of Na+ currents in FS neurons [2]: didn't significantly alter | block of homomeric Kv3.4 channels (homomeric Kv3.4 channels): blocks
